For assay [1], the system named is MIA PaCa-2 human pancreatic cancer xenograft. Briefly: MIA PaCa-2 xenograft efficacy study. Conditions: b.i.d., p.o., nude mice. It counts as in vivo. The protocol: In vivo efficacy of compounds 68, 101b at a dose of 30 mg/kg, b.i.d., p.o. and compound 81 at a dose of 50 mg/kg, b.i.d., p.o., was evaluated in MIA PaCa-2 human pancreatic cancer xenograft model in nude mice.
MIA PaCa-2 tumor fragments were implanted subcutaneously in the right flank region of nude mice. Tumor-bearing mice were randomized once the tumors reached an average volume of ~141-142 mm^3 (tumor volume range 72-242 mm^3).
To assess the efficacy of compound 81, the tumor-bearing mice were randomized once the tumors reached an average volume of ~181-183 mm^3 (tumor volume range 73-251 mm^3). The mice were divided into the following groups (n=8/group): Vehicle control and compound 81 (50 mg/kg, b.i d., p.o.).

Assay [2] concerns pERK after EGF stimulation in DLD1 cells. The experiment in a line: ERK phosphorylation assay (alphascreen pERK). The class given is cell-based. The conditions noted are these: Homo sapiens, DLD-1, 2 h compound, 200 ng/ml hEGF for 5 minutes, read-out: ERK phosphorylation inhibition IC50. In outline: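 DLD1 cells pretreated with test compounds for 2 h, then stimulated with 200 ng/ml hEGF for 5 min. Lysates assayed by AlphaScreen SureFire for ERK1/2 p-T202/Y204, read after 2 h at 25–28 °C. % inhibition relative to the stimulated-minus-unstimulated vehicle window.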

The target of assay [3] is T1, protein-protein interaction between hSOS1 and hKRASG12C (Homo sapiens, UniProt Q07889).
T1 construct: GST-hSOS1, 564-1049aa expressed and purified in-house
T1 sequence (Q07889 564-1049): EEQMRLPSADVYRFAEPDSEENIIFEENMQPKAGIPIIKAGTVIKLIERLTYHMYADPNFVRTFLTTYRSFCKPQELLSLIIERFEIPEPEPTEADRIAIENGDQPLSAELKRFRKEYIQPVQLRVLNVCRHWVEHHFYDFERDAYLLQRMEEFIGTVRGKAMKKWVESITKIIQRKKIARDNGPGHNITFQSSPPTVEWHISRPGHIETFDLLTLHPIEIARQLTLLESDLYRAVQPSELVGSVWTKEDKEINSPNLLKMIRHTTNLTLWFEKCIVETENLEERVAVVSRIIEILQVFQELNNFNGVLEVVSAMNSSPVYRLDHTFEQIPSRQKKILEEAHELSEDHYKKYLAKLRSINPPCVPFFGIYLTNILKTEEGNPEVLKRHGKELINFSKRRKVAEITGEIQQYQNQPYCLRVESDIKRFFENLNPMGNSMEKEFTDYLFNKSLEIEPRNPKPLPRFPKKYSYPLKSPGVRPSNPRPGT
The experiment in a line: KRAS-SOS1 interaction assay (HTRF). The class given is binding. The conditions noted are these: GST-hSOS1 564-1049aa, HIS-hKRASG12C, read-out: KRAS-SOS1 Interaction inhibition IC50. An outline of the steps:
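GST-hSOS1 (564-1049aa) at 10-50 nM working solution pre-incubated with compounds 10 min at 20° C in HEPES pH 7.4 buffer with EDTA, DTT, BSA and Igepal. HIS-hKRASG12C (100-300 nM working solution) added for 30-60 min, then anti-GST-d2/anti-HIS-Tb detection; percent inhibition from the 665/620 nm ratio.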
For orientation: In TR-FRET formats the signal depends on donor and acceptor labels being close together.

Assay [4] addresses T2, nucleotide exchange on hKRASG12C mediated by hSOS1 (Homo sapiens, UniProt Q07889).
T2 construct: HIS-hSOS1, 564-1049aa mediated GTP loading onto GST-hKRASG12C; His (N); made in house
T2 sequence (Q07889 564-1049): T1 sequence (Q07889 564-1049)
The experiment in a line: Guanine nucleotide exchange assay (GNEA, HTRF). The class given is biochemical. Conditions: HIS-hSOS1 564-1049aa mediated GTP loading onto GST-hKRASG12C 1-169aa, read-out: Guanine nucleotide exchange inhibition IC50. In outline: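 Compounds were pre-incubated 10 min at 20 °C with HIS-hSOS1 (564-1049aa) and EDA-GTP-DY-647P1 (working solution 10-50 nM and 200 nM) in pH 7.4 HEPES with NaCl, MgCl2, DTT, BSA and Igepal. GST-hKRASG12C (1-169aa, 25-125 nM working solution) plus anti-GST-Tb was added for 30-60 min at 20 °C. Percent inhibition came from the HTRF 665/620 nm ratio.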

Structures are written as SMILES. pIC50: −log10 of the molar value.

The term pIC50 denotes the negative decadic logarithm of the IC50, by convention in mol/L. In turn, `COC1(C)C(=O)N(C)c2cc3c(N[C@H](C)c4cccc(C(F)(F)C(C)(C)O)c4F)nc(C)nc3cc21` (single isomer, unassigned) [Compound 101b] displayed a tumor growth inhibition in assay [1] (30 mg/kg) of 65.71%. Besides, the pIC50 was 6.70 to 9.00 in assay [2], 8.00 to 9.00 in assay [3] and 7.52 to 9.00 in assay [4].

In turn, `Cc1nc(N[C@H](C)c2cccc(C(F)(F)C(C)(C)O)c2F)c2cc3c(cc2n1)C(C)(C)C(=O)N3C` [Compound 68, (R)-4-((1-(3-(1,1-Difluoro-2-hydroxy-2-methylpropyl)-2-fluorophenyl)ethyl)amino)-2,6,8,8-tetramethyl-6,8-dihydro-7H-pyrrolo[2,3-g]quinazolin-7-one] returned a tumor growth inhibition in assay [1] (30 mg/kg) of 63.82%. In addition, the figures for the pIC50 in assay [2], in assay [3] and in assay [4] were 6.70 to 9.00, 8.00 to 9.00 and 7.52 to 9.00, respectively.

`Cc1nc(N[C@H](C)c2cccc(C(F)(F)C(C)(C)O)c2F)c2cc3c(cc2n1)N(C)C(=O)C3(C)C` [Compound 81, (R)-4-((1-(3-(1,1-difluoro-2-hydroxy-2-methylpropyl)-2-fluorophenyl)ethyl)amino)-2,6,6,8-tetramethyl-6,8-dihydro-7H-pyrrolo[3,2-g]quinazolin-7-one] gave a tumor growth inhibition in assay [1] (50 mg/kg) of 67.68%. Also, the pIC50 in assay [2] is 6.70 to 9.00; in assay [3], 8.00 to 9.00; in assay [4], 7.52 to 9.00.

With `Cc1nc(N[C@H](C)c2cccc(C(F)(F)C(C)(C)O)c2F)c2cc3c(cc2n1)C1(CCOCC1)C(=O)N3C` [Compound 122, (R)-4′-((1-(3-(1,1-difluoro-2-hydroxy-2-methylpropyl)-2-fluorophenyl)ethyl)amino)-2′,6′-dimethyl-2,3,5,6-tetrahydrospiro[pyran-4,8′-pyrrolo[2,3-g]quinazolin]-7′(6′H)-one], the results for the pIC50 in assay [2], in assay [3] and in assay [4] were 6.70 to 9.00, 8.00 to 9.00 and 7.52 to 9.00, respectively.

On to `CO[C@]1(C)C(=O)N(C)c2cc3c(N[C@H](C)c4cc(N)cc(C(F)(F)F)c4)nc(C)nc3cc21` [Compound 131, (S)-4-(((R)-1-(3-amino-5-(trifluoromethyl)phenyl)ethyl)amino)-8-methoxy-2,6,8-trimethyl-6,8-dihydro-7H-pyrrolo[2,3-g]quinazolin-7-one], for which the negative logarithm of the IC50 (pIC50) was 6.70 to 9.00 in assay [2], 7.60 to 7.96 in assay [3] and 6.89 to 7.51 in assay [4].

Take `Cc1nc(N[C@H](C)c2cc(N)cc(C(F)(F)F)c2)c2cc3c(cc2n1)C1(CCOCC1)C(=O)N3C` [Compound 138, (R)-4′-((1-(3-amino-5-(trifluoromethyl)phenyl)ethyl)amino)-2′,6′-dimethyl-2,3,5,6-tetrahydrospiro[pyran-4,8′-pyrrolo[2,3-g]quinazolin]-7′(6′H)-one]: the pIC50 in assay [2] is 6.70 to 9.00; in assay [3], 7.60 to 7.96; in assay [4] it was 6.89 to 7.51.

`CCC1(OC)C(=O)N(C)c2cc3c(N[C@H](C)c4cc(N)cc(C(F)(F)F)c4)nc(C)nc3cc21` (stereo partly drawn) [Compound 139, (R & S)-4-(((R)-1-(3-amino-5-(trifluoromethyl)phenyl)ethyl)amino)-8-ethyl-8-methoxy-2,6-dimethyl-6,8-dihydro-7H-pyrrolo[2,3-g]quinazolin-7-one]: the values for the negative-log IC50 (pIC50) in assay [2], in assay [3] and in assay [4] were 6.30 to 6.70, 7.60 to 7.96 and 6.89 to 7.51, respectively.

The values are drawn from patent US20260209247A1, “Substituted Tricyclic Compounds” (Lupin Limited, priority 2019, published 2026).
